This assay has as its system Phage litmus.

SMILES strings stand for the structures. Several values for one entry are separate records, joined by “and”; a condition that tells them apart may be missing. Equal entries are not always repeated.

On to `CCO` [EtOH, ethanol], for which the “Color change of Phage litmus bands upon exposure” value (“Color change” below) is given as “immediately changed color”; the “Red-green-blue (RGB) color differences G3” value is 3.32 and 2.87 and 2.98; the “Red-green-blue (RGB) color differences R1” value is 1.22 and 1.81 and 1.06; the “Red-green-blue (RGB) color differences R3” value is 2.54 and 1.97 and 2.26. The “Time in which all color matrices of the Phage litmus responded” value (“Time in which all color matrices” below) came out at 30 s.
As to `CCCCCC` [Hexane, n-hexane], the “Color change” value is reported as “immediately changed color”; the “Red-green-blue (RGB) color differences R3” value was 0.69 and 0.99 and 0.53; the “Time in which all color matrices” value worked out at 30 s.
As to `CCOCC` [Ether, diethyl ether], the “Color change” value is “immediately changed color”; the “Red-green-blue (RGB) color differences G1” value is 0.38 and 0.56 and 0.39; the “Red-green-blue (RGB) color differences R1” value was 1.31 and 1.20 and 1.24; the “Red-green-blue (RGB) color differences R3” value is 1.15 and 1.53 and 0.91. Moreover, the “Red-green-blue (RGB) color differences R4” value was 1.30 and 1.54 and 1.12; the “Time in which all color matrices” value stood at 30 s.

The values are drawn from patent US10801054B2 (priority 2013, dated 2020).
